Results as given in PMC10803328 (Scientific Reports, 2024).
“Also recorded” adds a separate entry of the source. Like-named read-outs stand apart in the source and are kept apart here.

Assays:
PSAM^4-GlyR [1] = tested on: PSAM^4-GlyR; set-up: method as in PMID 30872534; details: rhesus monkey, globus pallidus internal region (GPi), PSAM^4-GlyR activated by the ligand; cited from earlier work
α4β2 nAChR = molecular target: α4β2 nAChR; set-up: method as in PMID 30872534, PMID 24556591; details: in vitro binding assay, literature; cited from earlier work
α7-nAChR = molecular target: α7-nAChR; set-up: method as in PMID 30872534, PMID 24556591; details: cited from earlier work; for Ki: in vitro binding assay, literature
PSAM^4-GlyR [2] = molecular target: T1, PSAM^4-GlyR (Homo sapiens, UniProt P23415+P36544, L131G/Q139L/Y217F); assay: Competitive binding assay with [^3H]ASEM on membranes of HEK-293 cells transduced with PSAM^4-GlyR; set-up: expressed in transfected cells; host or cells: HEK-293 (membrane fraction)
Protocol: HEK-293 cells were transduced with plasmids (5 μg per dish) of encoding PSAM^4-GlyR (in pcDNA3.1) or a control vector (GFP) and harvested 48 h after transduction. Cells were suspended in Tris–HCl buffer (50 mM, pH 7.4) supplemented with a protease inhibitor cocktail (1:100, Sigma-Aldrich; St Louis, MO). HEK-293 cells were disrupted with a Polytron homogenizer (Kinematica; Basel, Switzerland). Homogenates were centrifuged at 48,000g (50 min, 4 °C) and washed twice in the same conditions to isolate the membrane fraction. Protein was quantified by the bicinchoninic acid method (Pierce, ThermoFisher Scientific, MA). […] In all cases, free and membrane-bound radioligand were separated by rapid filtration of 500-μL aliquots in a 96-well plate harvester (Brandel; Gaithersburg, MD) and washed with ice-cold Tris–HCl buffer (2 mL). Microscint-20 scintillation liquid (65 μL per well, PerkinElmer; Boston, MA) was added to the filter plates. Plates were incubated overnight at room temperature and radioactivity counts were determined in a MicroBeta2 plate counter (PerkinElmer) with an efficiency of 41%. One-site competition curves were fitted using Prism 7 (GraphPad Software; La Jolla, CA). Ki values were calculated using the Cheng-Prusoff equation.

PSAM^4-GlyR [3] = tested on: PSAM^4-GlyR; set-up: method as in PMID 30872534; details: PSAM^4-GlyR transduced mouse; cited from earlier work
PSAM^4-GlyR [4] = molecular target: T1, PSAM^4-GlyR; set-up: expressed in transfected cells; method as in PMID 30872534, PMID 24556591, PMID 36279419; details: read-out: PSAM^4-GlyR (Ki); in vitro binding assay, literature; cited from earlier work
PSAM^4-GlyR [5] = tested on: PSAM^4-GlyR; set-up: method as in PMID 30872534; details: area CA1 of mouse hippocampal neurons, acting on PSAM^4-GlyR; cited from earlier work
P-gp = details: cited from earlier work
[6] = Measurement of apparent pKa by radiotracer partition; assay type: physicochemical; details: cyclohexane / sodium phosphate buffer partition; cyclohexane / phosphate buffers pH 3.0-10.5, n = 3
Protocol: The method was similar to that followed previously for other radiotracers. Sodium phosphate buffers (0.15 M), with pH values of 3.0, 3.5, 4.0, 4.5, 5.0, 5.5, 6.0, 6.5, 7.0, 7.4, 8.0, 8.5, 9.0, 9.5, 10.0, and 10.5, were prepared from 0.15 M NaH2PO4 and 0.1 M Na2HPO4 and distributed (1 mL per tube) as the aqueous phase. [^11C]uPSEM, formulated in ethanol (20 µL, 2.4 ± 0.3 MBq, n = 48), was added to each tube. Triple sets of such tubes were prepared simultaneously. Cyclohexane (1.0 mL) was added to each of the tubes containing the buffer and the [^11C]uPSEM and then vigorously vortexed for 1 min. The tubes were then centrifuged for one minute. The two phases in each tube were separated, sampled (50 µL aqueous, 200 µL organic) and counted in a γ-counter. Distribution coefficients at each pH were calculated by dividing the counts detected in the organic phase by the total activity present in both phases. These distribution coefficients were plotted versus pH and nonlinear regression analysis applied with GraphPad Prism version 4.03 for windows (GraphPad Software; San Diego, CA) using “One site competition” curve-fitting. […] The radiochemical purity of the [^11C]uPSEM preparation was 98.8% as determined by radio-HPLC on an X-Terra […] column (10 µm, 7.8 × 300 mm; Waters Corp.) and a mobile phase of MeOH:H2O:Et3N (55:45:0.1, by vol) at 5.0 mL/min.

T1 sequence (P36544+P23415 fused P36544:L131G/P36544:Q139L/P36544:Y217F): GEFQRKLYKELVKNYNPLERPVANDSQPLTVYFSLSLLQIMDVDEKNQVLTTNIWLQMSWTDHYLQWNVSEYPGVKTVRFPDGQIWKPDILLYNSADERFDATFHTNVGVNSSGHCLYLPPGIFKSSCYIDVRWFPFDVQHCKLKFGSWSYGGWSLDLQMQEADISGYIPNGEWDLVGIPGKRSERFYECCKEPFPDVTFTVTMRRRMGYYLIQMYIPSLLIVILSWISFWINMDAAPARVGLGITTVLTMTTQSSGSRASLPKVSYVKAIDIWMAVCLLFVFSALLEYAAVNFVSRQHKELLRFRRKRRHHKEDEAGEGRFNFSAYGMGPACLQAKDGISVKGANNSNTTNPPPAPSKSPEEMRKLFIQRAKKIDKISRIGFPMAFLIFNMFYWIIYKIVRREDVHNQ

In the case of `c1cnc2cc3c(cc2n1)[C@@H]1CNC[C@H]3C1` [Varenicline, varenicline], the “effect on neuronal firing rate” value (PSAM^4-GlyR [1]) is listed as “reduces neuronal firing rate”.

In the case of `O=S1(=O)c2cc(N3CCN4CCC3CC4)ccc2-c2cccc(F)c21` [ASEM], the Ki (α4β2 nAChR) is listed as 4000 nM and the Ki (α7-nAChR) is listed as 0.3 nM.

In the case of `Cn1c(=O)cnc2cc3c(cc21)C1CNCC3C1` (centres unmarked) [uPSEM792, 1-Methyl-1,6,7,8,9,10-hexahydro-2H-6,10-methanoazepino[4,5-g]quinoxalin-2-one], the Ki (PSAM^4-GlyR [2]) is listed as 2.62 nM, the “blocking of [^18F]ASEM binding in brain” value (PSAM^4-GlyR [3]) is listed as “able to block [^18F]ASEM binding” and the Ki (PSAM^4-GlyR [4]) is listed as 0.7 nM. For the same molecule, the neuronal silencing (PSAM^4-GlyR [5]) was “Neuronal silencing has been shown”, the “P-gp substrate in vitro” value (P-gp) was “not a P-gp substrate in vitro; also recorded: not to be a P-gp substrate” and the pKa [6] was 9.92 ± 0.05. The “affinity to α7-nAChRs (in words)” value (α7-nAChR) was “low affinity” and the Ki (α7-nAChR) was 8000 nM.
